Results: patent publication US20250221922A1, “ORAL CARE COMPOSITIONS CONTAINING RHAMNOLIPIDS” (Stepan Company, priority 2022, published 2025)

Experiment: Flavor Solubilization (mint flavor oils)
Type: physicochemical
Settings: premix at the solubilization ratio
Method: The ability of the rhamnolipid mixture to solubilize an oil-based flavorant, such as a mint oil flavorant, was tested. The rhamnolipid composition tested was Sample 3 used above for Porphyromonas gingivalis.
Functionality was determined through a series of dilutions using the rhamnolipid mixture as a potential solubilizer component for flavor oils in the absence of synthetic or other solubilizers. The rhamnolipid composition was compared with polysorbate 20, which is a synthetic solubilizer and the industry standard for oil solubilization for flavors. Common mint flavors, such as Mint #244456 and Mint #244455 from Belle Aire Creations, were used as the flavor oils.
The rhamnolipid composition was added to each of the flavor oils in increasing amounts in order to determine the solubilizer component to flavor oil ratio at which a clear premix was obtained. Once a clear premix was obtained, that premix was then added to deionized water to ensure that the final solution was crystal clear.

## polysorbate 20
  appearance of final solution of the premix in deionized water: crystal clear
